For 9 molecules, IC50 and Ki results are on record in patent US12649733B2, “3,6-diamino-pyridazin-3-yl derivatives, pharmaceutical compositions containing them and their uses as pro-apoptotic agents” (LES LABORATOIRES SERVIER, priority 2019, dated 2026).

One test relates to H146 cells. Kind of test: H146 cell viability, MTT assay. To be noted: Homo sapiens, NCI-H146, 48 h, 48 h exposure. In kind it is cell-based. In a few lines: (§1)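 Viability read by MTT reduction (OD 540 nm after overnight SDS/HCl lysis) after 48 h compound treatment of cells in RPMI 1640/10% FBS. Triplicates at nine concentrations, 3.16-fold apart; four-parameter curve fitting yields IC50.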
On the technique in general: Formazan colour is commonly taken as a measure of viable cells.

A further test concerns the target BCLXL (Homo sapiens, UniProt Q07817, V10N/V9A). Description: Fluorescence polarisation assay (PUMA-based probe displacement). Further: 20 nM protein, 10 nM fluorescent probe. In kind it is binding. (In general: In fluorescence polarisation assays a small probe gives low polarisation when free and higher when bound to something large.)
The next test has as its system MOLT-4 cells. Description: MOLT-4 cell viability, MTT assay. Type of test: cell-based. To be noted: Homo sapiens, MOLT-4, 48 h, 48 h exposure. In a few lines:
as §1

Bounds are passed on as bounds.

BCLXL, sequence (Q07817 with tags, fused parts or gaps V9A/V10N): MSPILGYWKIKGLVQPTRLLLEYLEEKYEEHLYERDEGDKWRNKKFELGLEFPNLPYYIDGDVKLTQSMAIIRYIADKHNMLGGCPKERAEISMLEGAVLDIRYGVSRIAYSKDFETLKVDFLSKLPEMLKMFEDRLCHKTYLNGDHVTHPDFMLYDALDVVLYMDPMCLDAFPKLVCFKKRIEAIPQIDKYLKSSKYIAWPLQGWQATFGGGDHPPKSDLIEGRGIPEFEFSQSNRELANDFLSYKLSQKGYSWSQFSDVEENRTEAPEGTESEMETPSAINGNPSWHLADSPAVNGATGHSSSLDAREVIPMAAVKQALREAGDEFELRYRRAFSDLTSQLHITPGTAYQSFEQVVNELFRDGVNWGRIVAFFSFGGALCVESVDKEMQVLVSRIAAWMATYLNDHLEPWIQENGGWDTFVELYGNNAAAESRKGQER

As a reminder, the IC50 is the point on the concentration scale where inhibition reaches its midpoint. A higher IC50 goes with a need for much substance. One may read the Ki as a dissociation constant, usually derived from enzyme kinetics or from competition with a known ligand. For the molecule `Cc1cc(N(C)c2nc(C(=O)O)c(CCCOc3ccc(C#CCN(C)C(=O)OC(C)(C)C)cc3F)s2)nnc1Nc1nc2ccccc2s1` [Example 82, 2-({6-[(1,3-Benzothiazol-2-yl)amino]-5-methylpyridazin-3-yl}(methyl)amino)-5-{3-[4-(3-{[(tert-butoxy)carbonyl](methyl)amino}prop-1-yn-1-yl)-2-fluorophenoxy]propyl}-1,3-thiazole-4-carboxylic acid], the IC50 in the test on H146 cells was found to be 98.8 nM; in the test on MOLT-4 cells it was 68.3 nM. The Ki at BCLXL is under 1 nM.
Regarding `Cc1cc(N(C)c2nc(C(=O)O)c(C3CCNCC3)s2)nnc1Nc1nc2ccccc2s1` [Example 83, 2-({6-[(1,3-Benzothiazol-2-yl)amino]-5-methylpyridazin-3-yl}(methyl)amino)-5-(piperidin-4-yl)-1,3-thiazole-4-carboxylic acid], the IC50 with H146 cells and in the test with MOLT-4 cells was over 15000 nM throughout. In addition, the Ki at BCLXL worked out at 320 nM.
For `Cc1cc(N(C)c2nc(C(=O)O)c(C3CCN(C(=O)OC(C)(C)C)CC3)s2)nnc1Nc1nc2ccccc2s1` [Example 84, 2-({6-[(1,3-Benzothiazol-2-yl)amino]-5-methylpyridazin-3-yl}(methyl)amino)-5-{1-[(tert-butoxy)carbonyl]piperidin-4-yl}-1,3-thiazole-4-carboxylic acid], the results for the IC50 with H146 cells and in the test on MOLT-4 cells were over 15000 nM and 7570 nM, respectively. Further, the Ki on BCLXL was found to be 49 nM.
`Cc1cc(N(C)c2nc(C(=O)O)c(C3CCN(Cc4ccccc4)CC3)s2)nnc1Nc1nc2ccccc2s1` [Example 86, 2-({6-[(1,3-Benzothiazol-2-yl)amino]-5-methylpyridazin-3-yl}(methyl)amino)-5-(1-benzylpiperidin-4-yl)-1,3-thiazole-4-carboxylic acid]: the IC50 in the test on H146 cells is at least 12400 nM; in the test with MOLT-4 cells it was 14600 nM. Further, the Ki on BCLXL stood at 160 nM.
The matching figures for `Cc1cc(N(C)c2nc(C(=O)O)c(C3CCN(CC(C)C)CC3)s2)nnc1Nc1nc2ccccc2s1` [Example 87, 2-({6-[(1,3-Benzothiazol-2-yl)amino]-5-methylpyridazin-3-yl}(methyl)amino)-5-[1-(2-methylpropyl)piperidin-4-yl]-1,3-thiazole-4-carboxylic acid]: over 15000 nM, over 15000 nM and 530 nM.
The like results for `Cc1cc(N(C)c2nc(C(=O)O)c(N3CCC(COc4ccccc4)CC3)s2)nnc1Nc1nc2ccccc2s1` [Example 88, 2-({6-[(1,3-Benzothiazol-2-yl)amino]-5-methylpyridazin-3-yl}(methyl)amino)-5-[4-(phenoxymethyl)piperidin-1-yl]-1,3-thiazole-4-carboxylic acid] were, in that order, 11000 nM, 1610 nM and 2.8 nM.
The like results for `Cc1cc(N(C)c2nc(C(=O)O)c(C3CCCCC3)s2)nnc1Nc1nc2ccccc2s1` [Example 102, 2-({6-[(1,3-Benzothiazol-2-yl)amino]-5-methylpyridazin-3-yl}(methyl)amino)-5-cyclohexyl-1,3-thiazole-4-carboxylic acid] were, in that order, over 15000 nM, over 15000 nM and 220 nM.
On to `Cc1cc(N(C)c2nc(C(=O)O)c(C3CCCC3)s2)nnc1Nc1nc2ccccc2s1` [Example 105, 2-({6-[(1,3-Benzothiazol-2-yl)amino]-5-methylpyridazin-3-yl}(methyl)amino)-5-cyclopentyl-1,3-thiazole-4-carboxylic acid], for which the IC50 in the test with H146 cells and in the test with MOLT-4 cells was over 15000 nM each time. Moreover, the inhibitory constant (Ki) on BCLXL was determined as 380 nM.
In the case of `C=Cc1sc(N(C)c2cc(C)c(Nc3nc4ccccc4s3)nn2)nc1C(=O)O` [Example 106, 2-({6-[(1,3-benzothiazol-2-yl)amino]-5-methylpyridazin-3-yl}(methyl)amino)-5-ethenyl-1,3-thiazole-4-carboxylic acid], the IC50 in the test on H146 cells and with MOLT-4 cells was over 15000 nM in each case. For the same molecule, on BCLXL, the Ki worked out at 27 nM.
